Experimental data taken from PubChem BioAssay (NCI).
Values joined by “and” are separate entries in the source; they are usually repeats but may differ in a detail not shown here. Identical values can stand only once.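 Values below derive from 48-hour exposures of cells grown in 96-well plates, with endpoints linearly interpolated between the two concentrations bracketing the appropriate inhibition level. GI50 is the concentration that inhibits growth by half. Definition used: TGI = concentration required for complete inhibition of growth.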

Tests used:
Experiment in all cases: NCI-60 cell line screen, 48 h
RXF 393 renal = test system: RXF 393 renal
KM12 colon = test system: KM12 colon
HL-60(TB) leukemia = test system: HL-60(TB) leukemia
IGROV1 ovarian = test system: IGROV1 ovarian
RPMI-8226 leukemia = test system: RPMI-8226 leukemia
T-47D breast = test system: T-47D breast
HOP-62 NSCLC = test system: HOP-62 NSCLC
786-0 renal = test system: 786-0 renal
OVCAR-3 ovarian = test system: OVCAR-3 ovarian
NCI-H460 lung = test system: NCI-H460 lung

SMILES | TGI (RXF 393 renal) | TGI (KM12 colon) | TGI (HL-60(TB) leukemia) | TGI (IGROV1 ovarian) | TGI (RPMI-8226 leukemia) | TGI (T-47D breast) | TGI (HOP-62 NSCLC) | TGI (786-0 renal) | TGI (OVCAR-3 ovarian) | TGI (NCI-H460 lung) | GI50 (RXF 393 renal) | GI50 (KM12 colon) | GI50 (HL-60(TB) leukemia) | GI50 (IGROV1 ovarian) | GI50 (RPMI-8226 leukemia) | GI50 (T-47D breast) | GI50 (HOP-62 NSCLC) | GI50 (786-0 renal) | GI50 (OVCAR-3 ovarian) | GI50 (NCI-H460 lung)
COc1ccc2c3c(ccc2c1)NC(C(=O)O)CC3 (configuration not stated) | > 100 µM | > 100 µM | 82.9 µM | > 100 µM | 54.1 µM | 79.1 µM | > 100 µM | > 100 µM | > 100 µM | > 100 µM |  |  |  |  |  |  |  |  |  | 
C/C(=N\NC(=O)c1cccc(S(=O)(=O)N2CCN(C)CC2)c1)c1cc(Cl)ccc1O | 23.9 µM | > 66.8 µM | 17.1 µM | > 66.5 µM | > 100 µM | > 100 µM | 37.3 µM | > 100 µM | > 100 µM | > 32 µM | 2.8 µM | 0.713 µM | 0.717 µM | 677 nM | 1.33 µM | 634 nM | 0.461 µM | 0.992 µM | 0.385 µM | 395 nM
CN(C)c1ccc(/C=N/NC(=O)CSc2nc3sc4c(c3c(=O)n2-c2ccccc2)CCCCC4)cc1 | 15.2 µM | > 100 µM | > 100 µM | > 100 µM | > 100 µM | > 100 µM | 20.2 µM | 39.1 µM | > 100 µM | 4.86 µM | 3.43 µM | > 100 µM | > 100 µM | 3080 nM | > 100 µM | > 100000 nM | 3.21 µM | 8.26 µM | 3.62 µM | 2210 nM
CS(=O)(=O)OCCCCOS(C)(=O)=O | 223 µM and > 1000 µM | > 1000 µM | 224 µM and 858 µM | > 1000 µM | 250 µM and > 1000 µM | > 464 µM | 244 µM and 983 µM | 250 µM and > 1000 µM | > 1000 µM | 242 µM and > 1000 µM | 523 µM | > 872 µM | 212 µM | 981000 nM | 95.9 µM | 336000 nM | 492 µM | 539 µM | > 1000 µM | 223000 nM
COc1ccc2nc(-c3ccc(Cl)cc3)cc(-c3nnc(SCC(=O)Nc4ccc(/C(C)=N\O)cc4)o3)c2c1 | 5.97 µM | 5.46 µM | > 50 µM | 20.6 µM | > 50 µM | 3.97 µM | 7 µM | 3.04 µM | 5.47 µM | 2.32 µM | 1.51 µM | 1.53 µM | > 50 µM | 3930 nM | 2.18 µM | 981 nM | 1.63 µM | 1.02 µM | 1.58 µM | 1100 nM
COc1ccc(-c2cnc(SCC(=O)c3c(C)n(C)n(-c4ccccc4)c3=O)n2-c2ccc(OC)cc2)cc1 | > 50 µM | > 50 µM | > 50 µM | > 50 µM | > 50 µM | > 50 µM | > 50 µM | > 50 µM | > 50 µM | > 50 µM | > 50 µM | > 50 µM | 36.8 µM | > 50000 nM | 6.87 µM | > 50000 nM | 28.9 µM | > 50 µM | > 50 µM | 43600 nM
CC(C)C[C@H](NC(=O)[C@H](Cc1ccccc1)NC(=O)c1cnccn1)B(O)O | < 0.01 µM and 0.00255 µM | 0.0367 µM and 0.00812 µM |  | 0.137 µM and 0.102 µM and 0.15 µM |  | < 0.01 µM and 0.00411 µM |  | 0.381 µM and 0.0967 µM and 0.411 µM | < 0.0124 µM and 0.00238 µM | 0.121 µM and 0.0397 µM and 0.15 µM | 0.00119 µM | 0.00229 µM | 0.00296 µM | 13 nM and 3.85 nM | 0.00085 µM | 1.67 nM | < 0.0131 µM and 0.00317 µM | 0.00245 µM | 0.00104 µM | 18.3 nM and 4.68 nM
COc1ccc2c(c1)[n+]([O-])c(/C(C)=N/NC(N)=S)c(C)[n+]2[O-] | > 100 µM | > 100 µM | > 100 µM | > 100 µM | > 100 µM | > 100 µM | > 100 µM | > 100 µM | > 95.7 µM | > 71.4 µM |  |  |  |  |  |  |  |  |  | 
C=CC1CC12C(=O)C1OC2(C)C2C(=O)c3c(O)cccc3C(=O)C12 (configuration not stated) | 41.1 µM | 66.3 µM | 46.9 µM |  |  | > 100 µM | > 100 µM | > 100 µM |  | > 100 µM | 13.1 µM | 18 µM | 18.7 µM |  |  | 31200 nM | > 100 µM | 29.1 µM |  | 33800 nM
Nc1c(C(=O)c2cccc(C(O)(CO)CO)c2)cnn1-c1ccc(F)cc1 | > 25 µM | > 25 µM | > 25 µM | > 25 µM | > 25 µM | > 25 µM | > 25 µM | > 25 µM | > 25 µM | > 25 µM | > 25 µM | > 25 µM | > 25 µM | > 25000 nM | > 25 µM | > 25000 nM | > 25 µM | > 25 µM | > 25 µM | > 25000 nM
O=C1c2cccc3c([N+](=O)[O-])ccc(c23)C(=O)N1CCCCl | > 10 µM | > 10 µM | > 10 µM | 5 µM | > 10 µM | > 10 µM | > 10 µM | > 10 µM | 4.72 µM | > 10 µM | 3.85 µM | 6.11 µM | 5.18 µM | 1900 nM | 4.61 µM | 2650 nM | 6.6 µM | > 10 µM | 2.2 µM | 5550 nM
C[C@]12CC/C(=N\O)C[C@@H]1CC[C@@H]1[C@@H]2CC[C@]2(C)/C(=N/O)CC[C@@H]12 | 71.4 µM | 47.4 µM | > 100 µM | 62.6 µM | 52 µM | > 100 µM |  | 72.3 µM | 59.1 µM | > 100 µM | 34.1 µM | 20.9 µM | 23.2 µM | 17400 nM | 15.9 µM | > 100000 nM |  | 26.7 µM | 17.4 µM | 34200 nM
O=C1C2=C(C(=O)c3c(O)ccc(O)c31)N(c1cccnc1)Cc1ccccc1O2 | 0.367 µM | 5.23 µM | 0.484 µM | 0.96 µM | 2.03 µM | 0.635 µM | 6.64 µM | 0.605 µM |  | 6.78 µM | 0.182 µM | 1.33 µM | 0.154 µM | 289 nM | 0.386 µM | 221 nM | 2.29 µM | 0.211 µM |  | 2600 nM
